Laboratory results as given in patent US20230257700A1, “FUNCTIONAL HUMAN CORNEAL ENDOTHELIAL CELLS AND APPLICATION THEREOF” (KYOTO PREFECTURAL PUBLIC UNIVERSITY CORPORATION, priority 2020, published 2023).

Columns and labels:
[1] = system: miR184; assay: intracellular miR184 expression by qRT-PCR; assay type: cell-based, human; settings: with/without EGF, with/without Y27632
From the text: (§1) Y27632 was used as a ROCK inhibitor.
(§2) Culture conditions conform to Examples 1 and 2.
(§3) The results of miR184, miR34, miR378, and miR146 gene expression variations in the presence or absence of EGF and in the presence or absence of Y by qRT-PCR are shown in FIGS. 17 and 18.

[2] = system: cultured human corneal endothelial cells CT09; assay: effects of additives, lot CT09 P5 (photographs, FACS, ELISA); assay type: cell-based; settings: CT09 P5, conditions 1 to 5, Day 34 FACS, PDGF-bb and IL-8 1st to 5th week
From the text: (§4) Lot CT09 P5 was used to assay the effects of additives to evaluate the product in a SB2-new culture method. First, using CT09 P4 (remaining cells for FBS lot assay), the culture supernatant was collected the day before the passage (Day 42), and then the CT09 P5 was passaged with ECD400 (181219), followed by culturing in Nancy medium (FBS #1652794, containing ascorbic acid) under conditions 1 to 5 shown in FIG. 23 (2 wells for each 6-well plate). From the 1st week to the 5th week, the culture supernatant was collected, one well was subjected to FACS measurement on Day 34 (190122), and the culture supernatant was measured for IL-8 and PDGF-bb by ELISA.

[3] = system: cultured human corneal endothelial cells; assay: FACS cell surface CD antigens and phase-contrast morphology of cultured HCEC (standard cell ratio); assay type: cell-based
Procedure: Culture with 0+Y, SB2, EGF, Asc (ascorbic acid) ↓ P1 Culture with +Y, SB2, EGF, Asc ↓ P2 Culture in 4 ways with EGF(−), 0.5 ng/mL, 1 ng/mL, 5 ng/mL (+Y, SB2, Asc) ↓ Passage from each condition in P2 P3 Culture in 4 ways with EGF(−), 0.5 ng/mL, 1 ng/mL, 5 ng/mL (+Y, SB2, Asc) ↓ Passage from each condition in P3 P4 Culture in 4 ways with EGF(−), 0.5 ng/mL, 1 ng/mL, 5 ng/mL (+Y, SB2, Asc) *Trypsin (TrypLE, ThermoFisher) concentration ×10 at the time of detachment, seeding cell number ECD800 (In the above, P indicates the number of passages.)
P0 Culture two eyes collectively in 2 ways with EGF(−), 0.5 ng/mL (+Y, SB2, Asc) ↓ Passage from each condition in P0 P1 Culture in two ways with EGF(−), 0.5 ng/mL (+Y, SB2, Asc) ↓ Passage from each condition in P1 P2 Culture in two ways with EGF(−), 0.5 ng/mL (+Y, SB2, Asc) TrypLE concentration ×10 at the time of detachment, at seeding ECD800
(§5) As to culture conditions, the Y addition timing is examined at P1 and P2 in #190719, and the Y addition timing is examined at P1 in #190802.
(§6) Using P4 of #190719, the culture supernatant was collected at 1 to 5 w to examine the difference in accordance with the presence or absence of the ROCK inhibitor. Donor information was as follows: #190719S/D, AEB-301, OSCN/ODCN, ECD=3448/3289, COD: Bleomycin Lung Toxicity 2/2 ChemoTreatments, D-P=11:28, D-C=8D.
For FACS analysis, 16×10^4 cells (one type of antibody+negative control) were dispensed into Proteosave tubes and the rest were passaged. FACS required 8×10^4 cells per antibody type. Passages were seeded at an Endothelial Cell Density (ECD: cells/mm^2) of 400 (191001 time point) (24-well: 7.6×10^4 cells, 12-well: 15.2×10^4 cells, 6-well: 38×10^4 cells, T-25: 100×10^4 cells).
The FACS was started up, and an antibody solution (hereinafter light-shielded, on ice) was prepared as follows. antigen fluorescent dye Volume (μL)×sample type plus something extra (μL)
The cell suspension was centrifuged at 250×g (1,800 rpm) for 2 minutes at 4° C., the supernatant was removed using P-200, the concentration was adjusted to 4×10^6 cells/mL and suspended in FACS Buffer (+NaN3). When the suspension was less than 30 μL, it was suspended in 30 μL and 20 μL was used for the reaction and 10 μL for NC.
Twenty μL of the antibody solution and 20 μL of the suspension were mixed well by pipetting, and the tube was wrapped in aluminum to shield from light and rotated at 4° C. for 2 hours (up to 4 hours maximum) on a rotator. Centrifugation was performed at 250×g (1,800 rpm) for 2 minutes at 4° C., the supernatant was discarded, followed by washing with 100 μL of FACS Buffer (+NaN3). Centrifugation was performed at 250×g (1,800 rpm) for 2 minutes at 4° C., the supernatant was discarded, followed by suspending in 350 μL of FACS buffer (−NaN3), and transferring through a cell strainer to a 5-mL tube. NCs were suspended in FACS Buffer (−NaN3) to a total of 350 μL of the rest of the initial suspension, and transferred to a 5-mL tube through a cell strainer. During the FACS measurement, the sample was kept light-shielded and on ice, the FACS laser value and target cell range were determined, and a file was created (to follow: Open Book→Open Syringe→Green→Cytometer tab: Laser→Area scaling for HCEC label: FSC 0.5/Blue 0.75/Red 0.80). The NC was set to SIT and allowed to run briefly (Flow rate: set to medium, Acquire data 5 seconds→Remove sample from SIT and put on ice) to check the fluorescence parameter graph and target cell range. […]

[4] = system: human corneal endothelial cells (donor AEM-510); assay: adhesion enhancement at P0 with or without Y addition; assay type: cell-based
Procedure: Next, ROCK inhibitors were tested for adhesion enhancement. In order to investigate whether the enhancement of adhesion by the ROCK inhibitor is related to standard cell manufacture, cells cultured under the following conditions were compared and verified at P0 with or without Y addition.
AEM-510 (person), ECD ODCN: 3058, and OSCN: 3058 were used, which were stored at 4° C. on January 30th, corneal treatment was performed on January 31st at 10:00, OD collagenase treatment was started at 10:45, and OS collagenase treatment was started at 11:05. Thereafter, seeding was started at 14:45 and cultured with Y−, A (ascorbic acid)+for OD and Y+, A+ for OS. At 10:00 on February 4, the medium was replaced, and both eyes: Y+, A+ were photographed (phase contrast ×4, ×10).

[5] = system: IL-8; assay: ELISA IL-8 in culture supernatant; assay type: cell-based, human
From the text: as §4, §5, §6

[6] = system: PDGF-bb; assay: ELISA PDGF-bb in culture supernatant; assay type: cell-based, human; settings: for PDGF-bb in culture supernatant (weekly): #190719 P1 and P2, #190318
From the text: as §4, §5, §6

[7] = system: miR34a-5p; assay: intracellular miR34a-5p expression by qRT-PCR; assay type: cell-based, human; settings: with/without EGF, with/without Y27632
From the text: as §1, §2, §3

[8] = system: IL-6, IL-8 and MIP-1b; assay: cytokine measurement (BioPlex) in culture supernatant; assay type: cell-based, human; settings: #190318
[9] = system: cultured endothelial cells; assay: measurement of metabolites in culture supernatant (CE-TOFMS, CE-MS/MS); assay type: cell-based, human
Procedure: In this Example, differences between the metabolite properties of functional human corneal endothelial cells and the metabolite properties of non-intended cells were confirmed.
For measurement of metabolites in culture supernatant (CS), an 80 μL Milli-Q (Merck1 KGaA, Darmstadt, Germany) containing 20 μL of CS and internal standard solution 1 (H3304-1002; Human Metabolome Technologies, Inc., Yamagata, Japan), was thoroughly mixed. Cationic compounds were measured by CE time-of-flight mass spectrometry (CE-TOFMS) in positive mode, and anionic compounds were measured by CE tandem MS (CE-MS/MS) in positive and negative modes. Hierarchical cluster analysis (HCA) was performed using the proprietary software “PeakStat”. Differences in values were analyzed statistically using Student's t-test or one-way analysis of variance (ANOVA) with Bonferroni's post hoc test (GraphPadPrism 6.0, GraphPad software). A p-value of <0.05 was considered statistically significant.
The effect of adding a ROCK inhibitor was determined according to Example 3.

[10] = system: mitochondrial respiration (OXPHOS) of HCEC; assay: mitochondrial respiratory capacity of cHCEC; assay type: cell-based, human; settings: HCEC passages 2-5
From the text: As used herein, “mitochondria dependent oxidative phosphorylation” is also called “mitochondria OXPHOS” and refers to a reaction of oxidative phosphorylation that depends on respiratory activity. As to the reaction associated with “mitochondria OXPHOS”, a extracellular flux analyzer, which analyzes the state of intracellular metabolism, can measure the oxygen consumption rate (OCR), which is an index of OXPHOS activity, the extracellular acidification rate (ECAR), which is an index of glycolytic activity.
Corneal endothelial cells (HCEC) were obtained from donor corneas provided by SightLife (Seattle, Wash., USA), and the HCEC were cultured according to a published protocol (Toda M, Ueno M, et al. Invest Ophthalmol Vis Sci. 2017; 58:2011) with some modifications. HCEC of passages 2-5 were used for all experiments. SPs containing CST were passaged at low cell density. The SPs of cHCEC were identified by cell surface markers (CD24, 44, 105, 166) using phase-contrast microscopy images and flow cytometry.

[11] = #190719 P4, ROCK inhibitor added at the start of the culture for 3 days
[12] = #190719 P1 and P2, ROCK inhibitor added 10 days after the start of culture

`C[C@@H](N)[C@H]1CC[C@H](C(=O)Nc2ccncc2)CC1.Cl.Cl.O` (relative stereo) [Y27632, (R)-(+)-trans-(4-pyridyl)-4-(1-aminoethyl)-cyclohexanecarboxamide dehydrochloride monohydrate] was tested, and the miR184 expression level [1] was “increases with the addition of the ROCK inhibitor”, the “desirable additive condition (overall effects of the additives)” value (from here on “desirable additive condition”) [2] was “addition of Y from Day 10” and the “mature standard cells by FACS” value [3, 11] was “no mature standard cells were detected by FACS”. For the same compound, the “ratio of standard cells (FACS)” value ([3]; ROCK inhibitor added on the 10th day after the start of culture, #190719, #190802, #190318) was “higher ratio of standard cells in all of the three experiments”, the “adhesion to the incubator after seeding” value ([4]; P0, Y+ vs Y−) was “promoted the adhesion to the incubator after seeding the cells” and the “difference between cultures on the 14th day” value ([4]; Y27632 added for the first time after the 4th day vs from seeding) was “no difference was observed on the 14th day of culture”. For the same compound, the “IL-8 in culture supernatant” value [5, 12] was “lowest from differentiation to the maturation stage”, the “IL-8 in culture supernatant” value [5, 11] was “higher than the standard” and the “PDGF-bb in culture supernatant (weekly)” value [6] was “high PDGF levels and slightly low levels in the P1 growth phase”. For the same compound, the “PDGF-bb in culture supernatant (for each item)” value [6, 12] was “increased from differentiation to maturation”, the “PDGF-bb in culture supernatant” value [6, 11] was “at a low level and does not satisfy the standard values” and the “PDGF-bb in culture supernatant” value ([6]; #190802) was “increased dependently on differentiation and induction by a ROCK inhibitor”. The miR34a-5p expression level [7] was “increases with the addition of the ROCK inhibitor”.
With `NC(=O)c1ccc(-c2nc(-c3ccc4c(c3)OCO4)c(-c3ccccn3)[nH]2)cc1` [SB4] the “desirable additive condition” value [2] was “addition of SB4”.
With `C[S+]([O-])c1ccc(-c2nc(-c3ccncc3)c(-c3ccc(F)cc3)[nH]2)cc1` (stereo not drawn) [SB203580] the “desirable additive condition” value [2] was “no addition of SB2 or the addition thereof only at the final stage of culture”, the “IL-8 in culture supernatant (weekly)” value ([5]; #190318) was “varies almost depending on the presence or absence of SB2” and the “IL-8 in culture supernatant” value ([5]; #190802) was “decreased dependently on a p38 MAPK inhibitor”. The “PDGF-bb in culture supernatant (for each item)” value ([6]; #190318, SB2 not added) was “high PDGF levels at 3 w”, the “PDGF-bb in culture supernatant (weekly)” value [6] was “little relation to the presence or absence of SB203580” and the “IL-6, IL-8 and MIP-1b in culture supernatant (BioPlex)” value [8] was “dependent on the p38 MAPK inhibitor”.
For “EGF: epidermal growth factor, a type of cell growth factor”, the miR184 expression level [1] was “increases with no EGF addition than with EGF addition”, the “desirable additive condition” value [2] was “no addition of EGF” and the “ratio of corneal endothelial cells of the present disclosure (FACS)” value ([3]; EGF (−) or 0.5 ng/mL from primary culture, P0 to P2, donor #214) was “increases when EGF is not added”. For the same compound, the “cell shape under microscopy and cell surface CD antigen trait” value ([3]; EGF (−), 0.5, 1, 5 ng/mL, passages P2 to P4, donor #202) was “no addition of EGF was desirable at any passage from P2 to P4”, the standard cell ratio ([3]; EGF addition, HCEC passages 2-5) was “lowers the standard cell ratio” and the “Lactic Acid and L/P (lactic acid/pyruvic acid) ratio; anaerobic glycolytic activity” value [9] was “non-intended cell profile with high anaerobic glycolytic activity due to the addition of EGF”. For the same compound, the “metabolite profile of cultured endothelial cells” value ([9]; EGF added) was “showed a non-intended cell profile by adding EGF”, the “amount of branched chain amino acids (Ile, Leu) produced” value ([9]; amount of EGF added varied) was “decreased when the amount of EGF added was reduced” and the “mitochondrial respiratory capacity and oxidative phosphorylation (OXPHOS)” value [10] was “reduces mitochondrial respiratory capacity and oxidative phosphorylation (OXPHOS)”. The miR34a-5p expression level [7] was “increases with no EGF addition than with EGF addition”.
